PubChem BioAssay (NCI)
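Cells were grown in 96-well plates and exposed to each compound for 48 hours at five concentrations; endpoints were interpolated linearly between bracketing concentrations, or set to the highest concentration if not reached. The concentration for 50% growth inhibition is given as GI50. Definition used: TGI = concentration required for complete inhibition of growth.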

Key:
Assay in all cases: growth of human tumour cells (NCI), 48 h
[1] = test system: ACHN renal
[2] = test system: CAKI-1 renal
[3] = test system: HCT-15 colon
[4] = test system: HOP-62 NSCLC
[5] = test system: MALME-3M melanoma
[6] = test system: MOLT-4 leukemia
[7] = test system: NCI-H460 lung
[8] = test system: SR leukemia
[9] = test system: TK-10 renal
[10] = test system: UO-31 renal

Question: For `C[N+]1(C)C/C(=C\c2ccc(O)cc2)C(=O)/C(=C/c2ccc(O)cc2)C1`, which TGI [1] is on record?
Answer: > 100 µM

Question: And the TGI [2]?
Answer: > 100 µM

Question: And the TGI [3]?
Answer: > 100 µM

Question: What about the TGI [4] of the same compound?
Answer: > 100 µM

Question: And the TGI [5]?
Answer: > 100 µM

Question: What about the TGI [6] of the same compound?
Answer: > 100 µM

Question: What about the TGI [7] of the same compound?
Answer: > 100 µM

Question: What about the TGI [8] of the same compound?
Answer: > 100 µM

Question: What about the TGI [9] of the same compound?
Answer: > 100 µM

Question: What about the TGI [10] of the same compound?
Answer: > 100 µM

Question: `NC(=S)N/N=C1\CC(c2ccccc2)Nc2ccccc21` (stereo unspecified) was tested. Which TGI [1] did it give?
Answer: > 100 µM

Question: What about the TGI [2] of the same compound?
Answer: > 100 µM

Question: What about the TGI [3] of the same compound?
Answer: > 100 µM

Question: What about the TGI [5] of the same compound?
Answer: 97 µM

Question: And the TGI [6]?
Answer: 73.2 µM

Question: What about the TGI [7] of the same compound?
Answer: > 100 µM

Question: And the TGI [9]?
Answer: > 100 µM

Question: And the TGI [10]?
Answer: 80.7 µM

Question: What does the source list for `CCCCCCCCc1ccc(CCC(N)(CO)CO)cc1`?
Answer: GI50 [1]: 1.61 µM; TGI [1]: 2.97 µM; GI50 [2]: 2.64 µM; TGI [2]: 6.56 µM; GI50 [3]: 1.68 µM; TGI [3]: 3.42 µM; GI50 [4]: 1.69 µM; TGI [4]: 3.08 µM; GI50 [5]: 2.32 µM; TGI [5]: 5.8 µM; GI50 [6]: 1.64 µM; TGI [6]: 3.44 µM; GI50 [7]: 1.76 µM; TGI [7]: 3.53 µM; GI50 [8]: 1.39 µM; TGI [8]: 4.28 µM; GI50 [9]: 1.89 µM; TGI [9]: 3.58 µM; GI50 [10]: 1.7 µM; TGI [10]: 3.4 µM

Question: What does the source list for `COc1cc(O)c2c(=O)c(OC)c(-c3ccc(OC)c(OC)c3)oc2c1.[Zn+2]`?
Answer: GI50 [1]: 35.4 µM; TGI [1]: > 100 µM; TGI [2]: > 100 µM; GI50 [4]: 2.87 µM; TGI [4]: 11.4 µM; GI50 [5]: 33.3 µM; TGI [5]: > 100 µM; GI50 [6]: > 100 µM; TGI [6]: > 100 µM; TGI [7]: > 100 µM; GI50 [8]: > 100 µM; TGI [8]: > 100 µM; TGI [9]: > 100 µM; TGI [10]: > 100 µM

Question: `CCOc1ccc(N=Nc2ccc(-c3ccc(N=Nc4c(O)ccc5cc(S(=O)(=O)O)cc(S(=O)(=O)O)c45)cc3)cc2)cc1` was tested. Which TGI [1] did it give?
Answer: > 100 µM

Question: And the TGI [2]?
Answer: > 100 µM

Question: And the TGI [3]?
Answer: > 100 µM

Question: And the TGI [4]?
Answer: > 100 µM

Question: What about the TGI [5] of the same compound?
Answer: > 100 µM

Question: And the TGI [6]?
Answer: > 100 µM

Question: And the TGI [7]?
Answer: > 100 µM

Question: And the TGI [8]?
Answer: > 100 µM

Question: What about the TGI [9] of the same compound?
Answer: > 100 µM

Question: What about the TGI [10] of the same compound?
Answer: > 100 µM

Question: `CC(=O)Oc1cc(/C=C/c2ccc(O)cc2)cc(OC(C)=O)c1` was tested. Which TGI [1] did it give?
Answer: > 100 µM

Question: What about the TGI [2] of the same compound?
Answer: > 100 µM

Question: And the TGI [3]?
Answer: > 100 µM

Question: And the TGI [4]?
Answer: > 100 µM

Question: And the TGI [5]?
Answer: > 100 µM

Question: What about the TGI [6] of the same compound?
Answer: 63.2 µM

Question: What about the TGI [7] of the same compound?
Answer: > 100 µM

Question: And the TGI [8]?
Answer: 48.7 µM

Question: What about the TGI [9] of the same compound?
Answer: > 100 µM

Question: What about the TGI [10] of the same compound?
Answer: > 100 µM

Question: What does the source list for `CC(=O)c1c(C)cc2cccc(OC3OC(CO)C(O)C(O)C3O)c2c1O` (stereo unspecified) (tested in a mixture with another compound)?
Answer: TGI [1]: > 100 µM; TGI [2]: > 100 µM; TGI [3]: > 100 µM; TGI [4]: > 100 µM; TGI [5]: > 100 µM; TGI [6]: > 100 µM; TGI [7]: > 100 µM; TGI [8]: > 100 µM; TGI [9]: > 100 µM

Question: `O=S(=O)([O-])[O-].[Fe+2].[OH2+]c1c(Cl)cc(Cl)cc1/C=N/Nc1ccccn1` was tested. Which TGI [1] did it give?
Answer: 1.12 µM

Question: And the TGI [3]?
Answer: 3.48 µM

Question: And the TGI [4]?
Answer: 3.56 µM

Question: What about the TGI [5] of the same compound?
Answer: 3.57 µM

Question: What about the TGI [6] of the same compound?
Answer: 2.94 µM

Question: And the TGI [7]?
Answer: 4.42 µM

Question: And the TGI [8]?
Answer: 4.03 µM

Question: And the GI50 [9]?
Answer: 1.01 µM

Question: What about the TGI [9] of the same compound?
Answer: 2.33 µM

Question: What about the TGI [10] of the same compound?
Answer: 3.13 µM

Question: For `Cc1cccc(/C=C2/C(=O)Nc3ccccc32)n1`, which TGI [1] is on record?
Answer: > 82.1 µM

Question: What about the TGI [2] of the same compound?
Answer: 37.8 µM

Question: What about the TGI [3] of the same compound?
Answer: > 68.9 µM

Question: And the TGI [4]?
Answer: 33.3 µM

Question: What about the TGI [5] of the same compound?
Answer: 49.1 µM

Question: And the TGI [6]?
Answer: 44.5 µM

Question: And the TGI [7]?
Answer: > 81.2 µM

Question: And the GI50 [8]?
Answer: 2.11 µM

Question: What about the TGI [8] of the same compound?
Answer: 7.3 µM

Question: What about the TGI [9] of the same compound?
Answer: 33.7 µM

Question: And the TGI [10]?
Answer: 30.1 µM

Question: `Cc1ncc(COP(=O)(O)O)c(C)c1O` was tested. Which TGI [1] did it give?
Answer: > 100 µM

Question: And the TGI [2]?
Answer: > 100 µM

Question: What about the TGI [3] of the same compound?
Answer: > 100 µM

Question: What about the TGI [4] of the same compound?
Answer: > 100 µM

Question: What about the TGI [5] of the same compound?
Answer: > 100 µM

Question: And the TGI [6]?
Answer: > 100 µM

Question: And the TGI [7]?
Answer: > 100 µM

Question: And the TGI [8]?
Answer: > 100 µM

Question: And the TGI [9]?
Answer: > 100 µM

Question: What about the TGI [10] of the same compound?
Answer: > 100 µM

Question: Which TGI [1] does the source give for `Nc1ccc(S(=O)(=O)NCCS(=O)(=O)O)cc1` here?
Answer: > 100 µM

Question: What about the TGI [2] of the same compound?
Answer: > 100 µM

Question: And the TGI [3]?
Answer: > 100 µM

Question: And the TGI [4]?
Answer: > 100 µM

Question: What about the TGI [5] of the same compound?
Answer: > 100 µM

Question: What about the TGI [6] of the same compound?
Answer: > 100 µM

Question: And the TGI [7]?
Answer: > 100 µM

Question: What about the TGI [8] of the same compound?
Answer: > 100 µM

Question: And the TGI [9]?
Answer: > 100 µM

Question: And the TGI [10]?
Answer: > 100 µM

Question: For `N=C(N)SCCN1CCCCC1`, which TGI [1] is on record?
Answer: > 100 µM

Question: What about the TGI [2] of the same compound?
Answer: 72.9 µM

Question: And the TGI [3]?
Answer: > 100 µM

Question: And the TGI [4]?
Answer: > 100 µM

Question: And the TGI [5]?
Answer: 32.1 µM

Question: What about the TGI [6] of the same compound?
Answer: 58 µM

Question: What about the TGI [7] of the same compound?
Answer: > 100 µM

Question: And the TGI [8]?
Answer: 60.1 µM

Question: And the TGI [9]?
Answer: > 100 µM

Question: And the TGI [10]?
Answer: > 100 µM

Question: For `C[N+]1(c2ccccc2)C=C(c2ccccc2)SC1=S` (stereo unspecified), which TGI [1] is on record?
Answer: > 100 µM

Question: What about the TGI [2] of the same compound?
Answer: > 100 µM

Question: And the TGI [3]?
Answer: > 100 µM

Question: What about the TGI [4] of the same compound?
Answer: > 100 µM

Question: And the TGI [5]?
Answer: > 100 µM

Question: What about the TGI [7] of the same compound?
Answer: > 100 µM

Question: And the TGI [8]?
Answer: > 100 µM

Question: And the TGI [9]?
Answer: > 100 µM

Question: What about the TGI [10] of the same compound?
Answer: > 100 µM
